Experimental data: US11998550B2, “Trametinib prevents mesothelial-mesenchymal transition and ameliorates abdominal adhesion and pulmonary fibrosis formation” (Thomas Jefferson University, priority 2017, dated 2024)

Key:
[1] = tested on: C57BL/6 mice; assay: Cecal abrasion model of intra-abdominal adhesion formation, drug by osmotic pump for eight days
Description: Mice were allowed to acclimate in the animal facility for at least one week prior to surgery, given free access to standard chow and water and a 12-h light-dark cycle in standard acrylic cages with wood chip bedding. Animals were randomly assigned into either an experimental group (laparotomy and cecal abrasion) or a control group (laparotomy only).
Briefly, mice underwent induction and maintenance anesthesia with 1-3% isofluorane with supplemental oxygen. After adequate sedation was achieved, mice were weighed and 0.1 mg/kg subcutaneous Buprenex (Hospira, Inc., Lake Forest, IL) was administered to ensure analgesia. The ventral surface was clipped along the midline and the skin was sterilized with betadine. A 2 cm midline incision was made subxiphoid to avoid injuring the bladder and the cecum was identified and externalized. The anti-mesenteric side of the cecum was gently swiped 30 times with gauze then returned to the abdomen. The incision was closed with a double layer of sutures with 2-0 silk [13]. […] In the drug escalation study, laparotomy and cecal abrasion were carried out as above as well as sub-dermal placement of the osmotic pumps.
Groups of 5 animals were given 0.1, 1.0 or 3.0 mg/kg animal weight of drug/day via osmotic pumps (Alzet Osmotic Pump 1002, Cupertino, CA) for eight days prior to sacrifice. The volume delivered/day was 6 ul of drug. Control mice underwent induction with anesthesia and laparotomy only. In addition, 5 animals underwent laparotomy and placement of the osmotic pumps which were filled with “drug vehicle (DMSO)” alone i.e., no drug. After 8 days of drug treatment, mice were euthanized under isofluorane anesthesia followed by cervical dislocation. Adhesions were examined by two independent practitioners. […]
Intestinal tissue was placed in Tissue-Tek O.C.T. Compound (Sakura Finetek, Torrance, CA) and immediately frozen in liquid nitrogen. […] Slides were mounted with DAPI Fluoromount-G (Southern Biotech) and fluorescence images were taken with a Zeiss epi-fluorescence microscope. […]

[2] = Solubility in water; type: physicochemical
[3] = tested on: phospho-MEK1/2, phospho-Erk1/2, FNEDA, αSMA, phospho-Smad2 (linker); assay: Western analysis of TGF-β1 treated rat peritoneal mesothelial cells; type: cell-based; conditions: Western blot, FIG. 2
Description: These insights led us to explore the potential mechanisms of action of trametinib using Western blotting analyses (FIG. 2). […] These increases in gene expression of phosphor-Erk 1/2, FNEDA, αSMA and p-SMAD2 (linker) were blocked by as low a concentration of trametinib as 2 nM (FIG. 2).
The experiments in this study were approved by the Institutional Animal Care and Use Committee at Thomas Jefferson University, and were performed in accordance with the National Institutes of Health guidelines for the care and handling of laboratory animals. RPMCs were isolated and cultured as described previously. […]
RPMCs were lysed in ice-cold modified RIPA buffer with protease inhibitor cocktail (50 mM/L Tris-HCl, 1% NP-40, 0.25% Na-deoxycholate, 150 mM/L NaCl, 1 mM/L EDTA, 1 mmol/L phenylmethyl sulfonyl fluoride, 1 mM/L sodium orthovanadate, 1 mM/L NaF, pH 7.4). Equivalent amounts of homogenate (50 μg/well), determined by Coomassie blue assay, were separated by sodium dodecyl sulfate polyacrylamide gel electrophoresis (SDS-PAGE), transferred to either nitrocellulose or PVDF membranes, and detected by SuperSignal West Femto or Pico chemiluminescence.

[4] = tested on: rat peritoneal mesothelial cells; assay: TGF-β induced mesothelial/mesenchymal transition (MMT), cell morphology; type: cell-based; conditions: trametinib alone, no TGF-β, five days
Description: Isolated mesothelial cells were incubated under control conditions without either TGF-β or trametinib, with TGF-β or trametinib alone, or with both TGF-β and trametinib for five days (FIGS. 1 and 2).
The experiments in this study were approved by the Institutional Animal Care and Use Committee at Thomas Jefferson University, and were performed in accordance with the National Institutes of Health guidelines for the care and handling of laboratory animals. RPMCs were isolated and cultured as described previously. Briefly, Sprague Dawley rats weighing 150 g-250 g, purchased from Jackson Laboratory, were injected intra-peritoneally with 30 ml of 0.25% trypsin/2.21 mM EDTA under Isoflurane anesthesia and were kept on the metal pad warmed to 37° C. for one hour; after which the abdominal fluid was collected and centrifuged at 300 g for 10 minutes. The isolated pelleted cells were re-suspended and cultured in DMEM/F12 medium supplemented with 10% (v/v) FBS at 37° C. in a humidified atmosphere of 5% CO2 in air. The RPMCs, from the fourth to seventh passages (split ratio 1:4), at 90% confluence were used for the experiments. The cells were treated either with 10 ng/ml of TGF-β1 (R&D systems) alone, or with TGF-β1 and the MEK1/2 inhibitor, Trametinib (2 or 5 nM).

[5] = tested on: rat peritoneal mesothelial cells; conditions: previous finding, ref [10]; cited from earlier work

average decrease in weight ([1]; 1.0 mg dose, eight day period of drug delivery) [%]	average increase in weight ([1]; 3.0 mg dose, eight day period of drug delivery) [%]	wound closure and healing at laparotomy site ([1]; highest drug dose (3 mg/kg/day))	solubility in water [2]	SMILES	concentration blocking TGF-β induced increases of phospho-Erk1/2, FNEDA, αSMA and p-SMAD2 (linker) [3] [nM]	effect of drug alone on cell appearance / toxicity [4]	effect on rat peritoneal mesothelial/mesenchymal transition induced by TGF-β [5]
2.2	0.5	no effect on wound closure and healing	minimally soluble in water	CC(=O)Nc1cccc(-n2c(=O)n(C3CC3)c(=O)c3c(Nc4ccc(I)cc4F)n(C)c(=O)c(C)c32)c1 [trametinib]	≤ 2	no effect and no apparent toxic effects	
				N#CC(=C(/N)Sc1ccccc1N)/C(C#N)=C(\N)Sc1ccccc1N [U0126]			blocked
